The values below come from DBAASP.

Each structure is given as a SMILES string. Converted amounts (≈) assume the structure as drawn.

Some test systems named below: Candida albicans; Escherichia coli 1005; Staphylococcus aureus; Streptococcus sanguinis.
What all share (assay): ≥ marks a high value that may be exact or a test limit, other limits are often not marked, values filed in µg/mL are converted to µM
Assay [1] deals with Salmonella enterica subsp. enterica serovar Typhimurium ATCC 14028.
Assay [2] deals with Candida krusei CGMCC 2.1857.
The subject of assay [3] is Staphylococcus aureus ATCC 29213.
In assay [4] the test system is Staphylococcus aureus ATCC 25923.
In assay [5] the test system is Salmonella enterica subsp. enterica serovar Pullorum ATCC 7913.
Assay [6] relates to Candida parapsilosis CGMCC 2.3989.
Assay [7] has as its system Staphylococcus aureus ATCC 43300.
Assay [8] deals with Staphylococcus epidermidis ATCC 12228.
Assay [9] deals with Candida tropicalis CGMCC 2.1975.
The subject of assay [10] is Escherichia coli ATCC 25922.
Assay [11] relates to Aspergillus brasiliensis ATCC 16404.
The test system of assay [12] is Pseudomonas aeruginosa ATCC 27853.
The test system of assay [13] is Candida albicans ATCC 10231.
Assay [14] deals with Enterococcus faecalis ATCC 29212.
Assay [15] deals with Micrococcus luteus ATCC 49732.
Assay [16] deals with Candida albicans ATCC 14053.
The subject of assay [17] is Escherichia coli ATCC 11775.
Assay [18] has as its system Staphylococcus aureus ATCC 12600.

A word on the MIC: it is the lowest concentration that inhibits growth of the organism. A low value points to a more susceptible organism.

As for `CC(C)C[C@H](NC(=O)[C@H](CCCN=C(N)N)NC(=O)[C@H](CC(C)C)NC(=O)[C@H](CC(C)C)NC(=O)[C@H](CC(C)C)NC(=O)[C@H](CCCN=C(N)N)NC(=O)[C@H](CC(C)C)NC(=O)[C@H](CCCN=C(N)N)NC(=O)[C@@H](N)CCCN=C(N)N)C(=O)N[C@@H](CCCN=C(N)N)C(=O)N[C@@H](CCCN=C(N)N)C(N)=O` [RRLRLLLRLRR], the MIC was 4 µM (≈ 6.08 µg/mL) in [1]; 4 µM (≈ 6.08 µg/mL) in assay [2]; 16 µM (≈ 24.3 µg/mL) in assay [3]; 4 µM (≈ 6.08 µg/mL) in the assay on Candida albicans; 4 µM (≈ 6.08 µg/mL) in [4]; 2 µM (≈ 3.04 µg/mL) in assay [5]. The MIC was at least 64 µM in assay [6]; 8 µM (≈ 12.2 µg/mL) in assay [7]; 4 µM (≈ 6.08 µg/mL) in assay [8]; 4 µM (≈ 6.08 µg/mL) against Escherichia coli 1005; 2 µM (≈ 3.04 µg/mL) in assay [9].
Turning to `CC[C@H](C)[C@H](NC(=O)[C@H](CCCCN)NC(=O)CNC(=O)[C@@H]1CCCN1C(=O)[C@H](Cc1cnc[nH]1)NC(=O)[C@H](CC(C)C)NC(=O)[C@H](CC(C)C)NC(=O)[C@H](Cc1ccc(O)cc1)NC(=O)[C@H](CS)NC(=O)CN)C(=O)N[C@@H](CS)C(=O)N[C@@H](Cc1ccc(O)cc1)C(=O)O` [GCYLLHPGKICY], the MIC in assay [10] is above 64 µM; in assay [3] it was above 64 µM; in assay [11], at least 64 µM; in [12], above 64 µM; in assay [13] it was above 64 µM; in assay [14], above 64 µM.
With `CSCC[C@H](NC(=O)[C@@H](NC(=O)[C@@H](N)[C@@H](C)O)[C@@H](C)O)C(=O)N1CCC[C@H]1C(=O)N[C@@H](CC(C)C)C(=O)N[C@@H](Cc1c[nH]c2ccccc12)C(=O)O` [TTMPLW], the MIC in [15] is at least 64 µM; in assay [16], at least 144 µM; in [17], at least 193 µM; in assay [18], at least 193 µM.
`NC(=O)[C@H](Cc1ccccc1)NC(=O)[C@H](Cc1ccccc1)NC(=O)[C@H](Cc1ccccc1)NC(=O)[C@@H](N)Cc1ccccc1` [FFFF]: the values for the MIC in the assay with Staphylococcus aureus and in the assay with Streptococcus sanguinis were 583 µM (≈ 353 µg/mL) and at least 291 µM, respectively.
